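Growth conditions: 96-well plates. Treatment: test compound, 48 hours, 5 concentrations. Analysis: linear interpolation between bracketing concentrations; unreached endpoints set to highest concentration. At the GI50, growth is halved. Definition used: TGI = concentration required for complete inhibition of growth.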
What was measured:
Test in all cases: inhibition of tumour cell growth, NCI panel, 48 h
UO-31 renal = system: UO-31 renal
KM20L2 colon = system: KM20L2 colon
U251 CNS = system: U251 CNS
NCI-H226 lung = system: NCI-H226 lung
M19-MEL melanoma = system: M19-MEL melanoma
ACHN renal = system: ACHN renal
LOX IMVI melanoma = system: LOX IMVI melanoma
PC-3 prostate = system: PC-3 prostate
NCI/ADR-RES ovarian = system: NCI/ADR-RES ovarian
T-47D breast = system: T-47D breast

| SMILES | TGI (UO-31 renal) [µM] | TGI (KM20L2 colon) [µM] | TGI (U251 CNS) [µM] | TGI (NCI-H226 lung) [µM] | TGI (M19-MEL melanoma) [µM] | TGI (ACHN renal) [µM] | TGI (LOX IMVI melanoma) [µM] | GI50 (LOX IMVI melanoma) [µM] | GI50 (UO-31 renal) [µM] | GI50 (KM20L2 colon) [µM] | GI50 (U251 CNS) [µM] | GI50 (ACHN renal) [µM] | GI50 (PC-3 prostate) [µM] | TGI (PC-3 prostate) [µM] | GI50 (NCI/ADR-RES ovarian) [µM] | TGI (NCI/ADR-RES ovarian) [µM] | GI50 (NCI-H226 lung) [µM] | GI50 (T-47D breast) [µM] | TGI (T-47D breast) [µM] |
| --- | --- | --- | --- | --- | --- | --- | --- | --- | --- | --- | --- | --- | --- | --- | --- | --- | --- | --- | --- |
| COC1CC(OS(=O)(=O)c2ccc(C)cc2)C(OS(=O)(=O)c2ccc(C)cc2)C(COS(=O)(=O)c2ccc(C)cc2)O1 (configuration not stated) | 12.1 | 30.9 | 11.6 | 10.4 | 20 | 12.7 | – | – | – | – | – | – | – | – | – | – | – | – | – |
| CC1OC(OC2C(Oc3cc(O)c4c(=O)cc(-c5ccc(O)cc5)oc4c3)OC(CO)C(O)C2O)C(O)C(O)C1O (configuration not stated) | > 100 | > 100 | > 100 | – | > 100 | > 100 | > 100 | – | – | – | – | – | – | – | – | – | – | – | – |
| CCOC(=O)NC(=O)c1cn(CCCOC(=O)CCCCCCCCC(=O)OCCCn2cc(C(=O)NC(=O)OCC)c(=O)[nH]c2=O)c(=O)[nH]c1=O | – | > 100 | 41.4 | – | > 100 | 42.1 | > 100 | – | – | – | – | – | – | – | – | – | – | – | – |
| O[C@]12CCCC[C@H]1CCC2 | > 100 | – | > 100 | – | > 100 | > 100 | > 100 | – | – | – | – | – | – | – | – | – | – | – | – |
| CCCCC(=O)[O-].N.N.N.N.N.[Co+3].[O-][Cl+3]([O-])([O-])[O-] | > 100 | > 100 | > 100 | – | – | > 100 | > 100 | > 100 | > 100 | > 100 | > 100 | > 100 | – | – | – | – | – | – | – |
| O=C(N/N=C/c1cc(Br)cc(Br)c1[O-])c1ccccc1O.O=C(N/N=C/c1cc(Br)cc(Br)c1[O-])c1ccccc1O.[Mn+2] | 24.2 | 21.3 | 14.8 | 11 | – | 15.1 | – | – | – | – | – | – | – | – | – | – | – | – | – |
| COc1ccc2nc(NC(=O)C(=O)CC(=O)c3ccc(Cl)cc3)sc2c1 | > 100 | > 100 | > 100 | > 100 | > 100 | > 100 | – | – | – | – | – | – | – | – | – | – | – | – | – |
| CC(=O)OC[C@@H]1[C@H]2CC(=O)O[C@H]2C[C@H]1OC(C)=O | > 100 | > 100 | > 100 | – | > 100 | > 100 | > 100 | – | – | – | – | – | – | – | – | – | – | – | – |
| O=C(Nc1ccncc1)C(=O)c1cn(S(=O)(=O)c2ccccc2F)c2ccccc12 | > 95 | – | 34.3 | > 68.6 | – | > 70.9 | > 100 | – | 3.66 | – | 1.89 | 5.21 | 2.35 | > 68.5 | 0.579 | > 100 | 6.93 | 2.53 | > 87.1 |
| C#CC[C@H](c1nc2cc(Cl)ccc2c(=O)n1Nc1ccccc1)N(CCCN)C(=O)c1cccc(Cl)c1F | 8.07 | – | 1.27 | 4.56 | – | 3.89 | 1.84 | 0.325 | 2.94 | – | 0.293 | 1.73 | 0.196 | 3.16 | 14.2 | 30 | 1.63 | 0.484 | 1.98 |
| O=C(Nc1cc(Cl)ccc1O)c1cccc(NC2=C(Cl)C(=O)N(Cc3ccccc3)C2=O)c1 | > 100 | – | 37.3 | 36.6 | – | > 100 | 32.1 | 15.7 | 38.3 | – | 18.2 | 35.6 | 19.2 | 46.1 | 20.7 | 43.4 | 17.4 | 29 | > 100 |
| O=C(N/N=C/c1ccc(O)cc1O)c1ccc(Nc2ccnc(C(F)(F)F)c2)cc1 | > 100 | – | 21.2 | > 100 | – | > 100 | > 100 | 8.31 | > 24.3 | – | 0.248 | 31.8 | > 45.1 | > 100 | > 100 | > 100 | 26.4 | 1.29 | > 100 |
| O=C(c1cc(-c2cc3c(cc2C(=O)N2Cc4ccccc4C[C@H]2CN2CCOCC2)OCO3)n2c1CCCC2)N(c1ccccc1)c1ccc(O)cc1 | > 100 | – | > 100 | 56 | – | > 100 | > 100 | 7.09 | 4.28 | – | 6.99 | 9.36 | 2.99 | > 100 | 6.5 | > 100 | 10.1 | 4.95 | > 100 |
| Cn1c2ccc([N+](=O)[O-])cc2c(=O)c2c(O)cc(O)cc21 | > 100 | – | 37.3 | > 100 | – | > 100 | > 100 | – | – | – | – | – | – | > 100 | – | 55 | – | – | > 100 |
| CN1CCN(Cc2ccc(NC(=O)c3[nH]ncc3Nc3ncnc4c3CCC4)cc2)CC1 | 7.61 | – | 12.4 | 13 | – | 9.09 | 3.1 | 0.817 | 1.5 | – | 1.48 | 1.32 | 1.96 | 12.1 | 6.17 | 45.1 | 0.755 | 3.72 | 22.7 |

Source: PubChem BioAssay (NCI)
